According to PubChem BioAssay AID1259407 (Chemical Carcinogenesis Research Information System (CCRIS), 2018):
Active and inactive are the calls of the source. How the calls were made is not given here.

System: CCRIS mutagenicity, Ames/micronucleus/aberration tests
Test: CCRIS mutagenicity studies
[1] = Test System: AMES SALMONELLA TYPHIMURIUM, Strain/Indicator: TA98, Metabolic Activation: NONE, Method: PREINCUBATION
[2] = Test System: AMES SALMONELLA TYPHIMURIUM, Strain/Indicator: TA98, Metabolic Activation: NONE, Method: STANDARD PLATE
[3] = Test System: AMES SALMONELLA TYPHIMURIUM, Strain/Indicator: TA100, Metabolic Activation: HAMSTER, LIVER, S-9, AROCLOR 1254 (10%), Method: PREINCUBATION
[4] = Test System: AMES SALMONELLA TYPHIMURIUM, Strain/Indicator: TA100, Metabolic Activation: NONE, Method: PREINCUBATION
[5] = Test System: AMES SALMONELLA TYPHIMURIUM, Strain/Indicator: TA100, Metabolic Activation: NONE, Method: STANDARD PLATE
[6] = Test System: AMES SALMONELLA TYPHIMURIUM, Strain/Indicator: TA100, Metabolic Activation: RAT, LIVER, S-9, AROCLOR 1254 (10%), Method: PREINCUBATION
[7] = Test System: AMES SALMONELLA TYPHIMURIUM, Strain/Indicator: TA1535, Metabolic Activation: NONE, Method: PREINCUBATION
[8] = Test System: AMES SALMONELLA TYPHIMURIUM, Strain/Indicator: TA1535, Metabolic Activation: NONE, Method: STANDARD PLATE
[9] = Test System: AMES SALMONELLA TYPHIMURIUM, Strain/Indicator: TA1537, Metabolic Activation: HAMSTER, LIVER, S-9, AROCLOR 1254 (10%), Method: PREINCUBATION
[10] = Test System: AMES SALMONELLA TYPHIMURIUM, Strain/Indicator: TA1537, Metabolic Activation: NONE, Method: PREINCUBATION
[11] = Test System: AMES SALMONELLA TYPHIMURIUM, Strain/Indicator: TA1537, Metabolic Activation: NONE, Method: STANDARD PLATE
[12] = Test System: AMES SALMONELLA TYPHIMURIUM, Strain/Indicator: TA1537, Metabolic Activation: RAT, LIVER, S-9, AROCLOR 1254 (10%), Method: PREINCUBATION
[13] = Test System: AMES SALMONELLA TYPHIMURIUM, Strain/Indicator: TA98, Metabolic Activation: NONE, Method: SUSPENSION/PLATE
[14] = Test System: AMES SALMONELLA TYPHIMURIUM, Strain/Indicator: TA100, Metabolic Activation: NONE, Method: SUSPENSION/PLATE

For `NCCNCCNCCNCCN`, the mutagenic call [1] was “active; positive”, the mutagenic call [2] was “inactive; negative” and the mutagenic call (Test System: AMES SALMONELLA TYPHIMURIUM, Strain/Indicator: TA98, Metabolic Activation: RAT, LIVER, S-9, AROCLOR 1254, Method: STANDARD PLATE) was “inactive; negative”. For the same compound, the mutagenic call (Test System: AMES SALMONELLA TYPHIMURIUM, Strain/Indicator: TA98, Metabolic Activation: RAT, LIVER, S-9, PCB, Method: PREINCUBATION) was “inactive; negative”, the mutagenic call [3] was “active; positive” and the mutagenic call [4] was “active; positive”. For the same compound, the mutagenic call [5] was “inactive; negative”, the mutagenic call [6] was “active; positive” and the mutagenic call (Test System: AMES SALMONELLA TYPHIMURIUM, Strain/Indicator: TA100, Metabolic Activation: RAT, LIVER, S-9, AROCLOR 1254, Method: STANDARD PLATE) was “inactive; negative”. The mutagenic call (Test System: AMES SALMONELLA TYPHIMURIUM, Strain/Indicator: TA100, Metabolic Activation: RAT, LIVER, S-9, PCB, Method: PREINCUBATION) was “inactive; negative”, the mutagenic call [7] was “inactive; negative” and the mutagenic call [8] was “inactive; negative”. For the same compound, the mutagenic call (Test System: AMES SALMONELLA TYPHIMURIUM, Strain/Indicator: TA1535, Metabolic Activation: RAT, LIVER, S-9, AROCLOR 1254, Method: STANDARD PLATE) was “inactive; negative”, the mutagenic call [9] was “inactive; negative” and the mutagenic call [10] was “inactive; negative”. The mutagenic call [11] was “inactive; negative”, the mutagenic call [12] was “inactive; negative” and the mutagenic call (Test System: AMES SALMONELLA TYPHIMURIUM, Strain/Indicator: TA1537, Metabolic Activation: RAT, LIVER, S-9, AROCLOR 1254, Method: STANDARD PLATE) was “inactive; negative”. For the same compound, the mutagenic call (Test System: AMES SALMONELLA TYPHIMURIUM, Strain/Indicator: TA1538, Metabolic Activation: NONE, Method: STANDARD PLATE) was “inactive; negative”, the mutagenic call (Test System: AMES SALMONELLA TYPHIMURIUM, Strain/Indicator: TA1538, Metabolic Activation: RAT, LIVER, S-9, AROCLOR 1254, Method: STANDARD PLATE) was “inactive; negative” and the mutagenic call (Test System: CHINESE HAMSTER OVARY, Strain/Indicator: CHO (HGPRT)/6-THIOGUANINE, Metabolic Activation: NONE) was “inactive; negative”. For the same compound, the mutagenic call (Test System: CHINESE HAMSTER OVARY, Strain/Indicator: CHO (HGPRT)/6-THIOGUANINE, Metabolic Activation: RAT, LIVER, S-9, AROCLOR 1254) was “inactive; negative” and the mutagenic call (Test System: UDS RAT HEPATOCYTES, Strain/Indicator: THY INCORP, Metabolic Activation: NONE, Method: SCINTILLATION SPECTROMETRY) was “active; positive”.

With `[Cl][Sn]([c]1ccccc1)([c]1ccccc1)[c]1ccccc1` the mutagenic call [13] was “inactive; negative” and the mutagenic call [14] was “inactive; negative”.

With `Cc1ccc2cc3c(c4c2c1CC4)C1NC1c1ccccc1-3` (stereo not drawn) the mutagenic call [2] was “active; positive” and the mutagenic call [5] was “active; positive”.

With `O=C(NO)OCc1ccccc1` the mutagenic call (Test System: E. COLI, Strain/Indicator: WP2 UVRA, Metabolic Activation: NONE, Method: FLUCTUATION TEST) was “active; positive”.

In the case of `NC1CCC(CC2CCC(N)CC2)CC1` (stereo not drawn), the mutagenic call (Test System: AMES SALMONELLA TYPHIMURIUM, Strain/Indicator: TA98, Metabolic Activation: HAMSTER, LIVER, S-9, AROCLOR 1254 (10%), Method: PREINCUBATION) is reported as “inactive; negative”, the mutagenic call [1] is reported as “inactive; negative” and the mutagenic call (Test System: AMES SALMONELLA TYPHIMURIUM, Strain/Indicator: TA98, Metabolic Activation: RAT, LIVER, S-9, AROCLOR 1254 (10%), Method: PREINCUBATION) is reported as “inactive; negative”. For the same compound, the mutagenic call [3] was “inactive; negative”, the mutagenic call [4] was “inactive; negative” and the mutagenic call [6] was “inactive; negative”. The mutagenic call (Test System: AMES SALMONELLA TYPHIMURIUM, Strain/Indicator: TA1535, Metabolic Activation: HAMSTER, LIVER, S-9, AROCLOR 1254 (10%), Method: PREINCUBATION) was “inactive; negative”, the mutagenic call [7] was “inactive; negative” and the mutagenic call (Test System: AMES SALMONELLA TYPHIMURIUM, Strain/Indicator: TA1535, Metabolic Activation: RAT, LIVER, S-9, AROCLOR 1254 (10%), Method: PREINCUBATION) was “inactive; negative”. The mutagenic call [9] was “inactive; negative”, the mutagenic call [10] was “inactive; negative” and the mutagenic call [12] was “inactive; negative”.

For `CN(C)c1ccc(C(=C2C=CC(=[N+](C)C)C=C2)c2ccccc2Cl)cc1`, the mutagenic call (Test System: Ames Salmonella typhimurium, Strain/Indicator: TA98, Metabolic Activation: None, Method: Preincubation) was “inactive; negative”, the mutagenic call (Test System: Ames Salmonella typhimurium, Strain/Indicator: TA98, Metabolic Activation: Rat, Liver, S-9, Aroclor 1254, Method: Preincubation) was “inactive; negative” and the mutagenic call (Test System: Ames Salmonella typhimurium, Strain/Indicator: TA100, Metabolic Activation: None, Method: Preincubation) was “inactive; negative”. For the same compound, the mutagenic call (Test System: Ames Salmonella typhimurium, Strain/Indicator: TA100, Metabolic Activation: Rat, Liver, S-9, Aroclor 1254, Method: Preincubation) was “inactive; negative”, the mutagenic call (Test System: Ames Salmonella typhimurium, Strain/Indicator: TA102, Metabolic Activation: None, Method: Preincubation) was “inactive; negative” and the mutagenic call (Test System: Ames Salmonella typhimurium, Strain/Indicator: TA102, Metabolic Activation: Rat, Liver, S-9, Aroclor 1254, Method: Preincubation) was “inactive; negative”. The mutagenic call (Test System: Ames Salmonella typhimurium, Strain/Indicator: TA1535, Metabolic Activation: None, Method: Preincubation) was “inactive; negative” and the mutagenic call (Test System: Ames Salmonella typhimurium, Strain/Indicator: TA1535, Metabolic Activation: Rat, Liver, S-9, Aroclor 1254, Method: Preincubation) was “inactive; negative”.

With `COP(=O)(OC)C(OC(=O)CCl)C(Cl)(Cl)Cl` (stereo not drawn) the mutagenic call [2] was “inactive; negative”, the mutagenic call (Test System: AMES SALMONELLA TYPHIMURIUM, Strain/Indicator: TA98, Metabolic Activation: RAT, LIVER, S-9, AROCLOR, Method: STANDARD PLATE) was “inactive; negative” and the mutagenic call [5] was “inactive; negative”. For the same compound, the mutagenic call (Test System: AMES SALMONELLA TYPHIMURIUM, Strain/Indicator: TA100, Metabolic Activation: RAT, LIVER, S-9, AROCLOR, Method: STANDARD PLATE) was “inactive; negative”, the mutagenic call [8] was “inactive; negative” and the mutagenic call (Test System: AMES SALMONELLA TYPHIMURIUM, Strain/Indicator: TA1535, Metabolic Activation: RAT, LIVER, S-9, AROCLOR, Method: STANDARD PLATE) was “inactive; negative”. The mutagenic call [11] was “inactive; negative” and the mutagenic call (Test System: AMES SALMONELLA TYPHIMURIUM, Strain/Indicator: TA1537, Metabolic Activation: RAT, LIVER, S-9, AROCLOR, Method: STANDARD PLATE) was “inactive; negative”.

In the case of `[CH3][Sn]([Cl])([Cl])[Cl]`, the mutagenic call [13] is reported as “inactive; negative” and the mutagenic call [14] is reported as “inactive; negative”.
